How the values were obtained:
[1] = Acute toxicity after single intraperitoneal administration; conditions: mouse, in vivo, ip, mice, 95% confidence limits 307-478
Description: The toxicity of MR 729 after single administration has been studied in mice, by injecting the product at different doses by the intraperitoneal route.

[2] = molecular target: T1, angiotensin converting enzyme (ACE) (Homo sapiens, UniProt P12821); assay: In vitro inhibition of plasma ACE in normal human serum (method of Summary et al.); assay type: biochemical; set-up: ID50 (ACE inhibition): unit not given here; conditions: for ACE activity: control 30; for % Enzymatic activity: control 100
T1 construct: The plasma ACE has been determined by the method of Summary et al; from tissue; host or cells: normal human serum
T1 sequence (P12821 30-1232 limits assumed): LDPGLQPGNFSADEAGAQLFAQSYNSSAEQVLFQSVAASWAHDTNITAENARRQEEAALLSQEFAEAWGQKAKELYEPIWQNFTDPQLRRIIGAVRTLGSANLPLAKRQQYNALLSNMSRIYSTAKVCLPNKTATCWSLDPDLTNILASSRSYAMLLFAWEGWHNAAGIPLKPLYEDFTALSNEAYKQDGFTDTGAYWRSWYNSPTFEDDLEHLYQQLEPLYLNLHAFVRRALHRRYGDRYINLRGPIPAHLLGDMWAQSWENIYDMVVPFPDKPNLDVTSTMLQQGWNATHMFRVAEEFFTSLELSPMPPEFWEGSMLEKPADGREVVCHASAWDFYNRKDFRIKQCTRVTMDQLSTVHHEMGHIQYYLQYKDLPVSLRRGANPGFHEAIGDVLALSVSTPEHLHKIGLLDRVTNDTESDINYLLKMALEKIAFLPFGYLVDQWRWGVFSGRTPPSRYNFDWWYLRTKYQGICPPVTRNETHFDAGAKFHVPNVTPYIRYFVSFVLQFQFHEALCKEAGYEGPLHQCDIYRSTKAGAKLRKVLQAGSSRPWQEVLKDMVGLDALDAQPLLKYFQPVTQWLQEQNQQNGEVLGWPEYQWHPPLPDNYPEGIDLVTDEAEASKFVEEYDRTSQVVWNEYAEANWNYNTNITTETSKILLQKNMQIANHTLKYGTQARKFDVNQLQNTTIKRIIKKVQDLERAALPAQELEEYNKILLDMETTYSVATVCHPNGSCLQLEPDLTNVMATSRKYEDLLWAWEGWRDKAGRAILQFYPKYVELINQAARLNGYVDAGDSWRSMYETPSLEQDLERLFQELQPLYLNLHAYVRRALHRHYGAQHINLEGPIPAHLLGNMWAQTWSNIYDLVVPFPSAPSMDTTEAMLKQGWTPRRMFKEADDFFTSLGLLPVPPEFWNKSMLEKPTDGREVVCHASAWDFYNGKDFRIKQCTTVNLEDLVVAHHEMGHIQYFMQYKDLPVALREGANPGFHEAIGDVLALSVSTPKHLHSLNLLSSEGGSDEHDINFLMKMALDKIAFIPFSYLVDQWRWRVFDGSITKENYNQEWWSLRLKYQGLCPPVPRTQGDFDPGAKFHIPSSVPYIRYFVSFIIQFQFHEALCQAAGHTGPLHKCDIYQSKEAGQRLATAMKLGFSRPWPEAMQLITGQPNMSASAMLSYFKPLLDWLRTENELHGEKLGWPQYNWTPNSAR
Procedure: The plasma ACE has been determined by the method of Summary et al. (Clin. Sci. 50, 321, 1976) using histidyl-glycyl-histidine as a substrate.
Tests have been carried out with 20 ml of normal human serum.
A 0.1 M aqueous solution of MR 729 has been used.

[3] = test system: lipid infiltration experimentally induced by CCl4; assay: Intoxication by CCl4, liver lipids; assay type: in vivo; conditions: 12 hours fasting rats, oral route at different doses 2 hours before CCl4, sacrificed after 20 hours
Procedure: The study has been carried out on 12 hours fasting rats; MR 729 was administered by oral route at different doses 2 hours before carbon tetrachloride. The animals were sacrificed after 20 hours and the liver was removed for the determination of liver lipids.

[4] = test system: ethionine-induced hepatic lipidic infiltration; assay: Intoxication by ethionine; assay type: in vivo; conditions: rat, daily oral administration during the 8 days preceding ethionine
Description: Also ethionine administration causes in the rat hepatic damages with respect to hepatocytes, occurring as a massive lipidic infiltration.

[5] = test system: hepatic damage caused by α-naphtyl-isothiocyanate; assay: Intoxication by α-naphtyl-isothiocyanate; assay type: in vivo; conditions: rat, contemporary oral treatment, 8 days α-naphtyl-isothiocyanate
Description: The hepatic damage caused by 8 days prolonged administration of α-naphtyl-isothiocyanate causes in the rate impairments in respect of cellular proliferation and hypertrophy of periportal spaces.

[6] = test system: liver regeneration; assay: Liver regeneration in partially hepathectomized rats; assay type: in vivo; conditions: treated just after operation, assessed after 4 days
Description: This study aimed to evidence whether MR 729 could affect the liver regeneration in partially hepathectomized rats.
The animals have been treated with the product under study just after their operation; the regeneration degree has been assessed after 4 days.

[7] = test system: time of hexobarbital induced sleep; assay: Hexobarbital induced sleep in rats intoxicated by carbon tetrachloride; assay type: in vivo
Procedure: Since the length of barbiturates induced sleep can be considered directly related to the metabolism rate of these drugs by the liver, it seemed appropiate to assess the influence of MR 729 on the time of hexobarbital induced sleep in rats intoxicated by carbon tetrachloride.
MR 729 has been administered by oral route for 4 consecutive days, at different doses; the animals were then treated with CCl4 and, after 48 hours, with hexobarbital.

[8] = test system: pig's lyophilized gastric mucine; assay: In vitro mucolytic effect (method of Scheffner)
Description: It has been followed the method described by Scheffner (Ann. N.Y. Acad. Sci. 106, 298, 1963) using as a substrate pig's lyophilized gastric mucine.

[9] = test system: bronchial secretion; assay: In vivo mucolytic effect, sodium fluorescein method (Mawatari); conditions: rat, 250 mg/kg intraperitoneal, 5 minutes before sodium fluorescein, determined after 30 minutes
Procedure: The effect of MR 729 on bronchial secretion has been studied in the rat with the method of sodium fluorescein described by Mawatari (Kagoshima Daigakeu Igakeu Zasshi, 27, 561, 1976).
The product under study has been administered by intraperitoneal route 5 minutes before the solution of sodium fluoroscein, whose amount in the bronchial secretion has been determined after 30 minutes.

[10] = molecular target: T2, rat hepatic glutathione-peroxidase (GSH-P) (Rattus norvegicus, UniProt P04041); assay: In vitro inhibition of glutathione-peroxidase (glutathione/NADPH/GSH-reductase/cumene hydroperoxide system); assay type: biochemical; conditions: concentration 0.025 mM
T2 construct: rat hepatic glutathione-peroxidase (GSH-P); from tissue; host or cells: rat liver
T2 sequence (P04041 1-201): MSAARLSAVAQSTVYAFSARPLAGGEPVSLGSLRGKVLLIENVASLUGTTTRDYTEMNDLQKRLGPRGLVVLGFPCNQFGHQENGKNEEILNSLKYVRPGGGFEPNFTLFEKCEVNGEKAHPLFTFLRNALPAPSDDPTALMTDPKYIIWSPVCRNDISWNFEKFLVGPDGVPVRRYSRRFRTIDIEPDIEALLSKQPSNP
Procedure: On the ground of these considerations and considering the above described pharmacological results, it has been assessed the efficacy of MR 729 in inhibiting in vitro the rat hepatic glutathione-peroxidase (GSH-P).
It has been used the system glutathione/NADPH/GSH-reductase/cumene hydroperoxide. It was shown that MR 729 inhibits of about 63% the GSH-P, at a concentration of 0.025 mM. The administration of MR 729 allows therefore a saving of endogenous glutathione and a consequent decrease of free peroxides. Compound MR 729 can be administered by oral, parenteral, rectal, aerosolic route in various forms. The compositions below are described as an example: […]

[11] = MR 729 20 μl (0.1 M aqueous solution)
[12] = MR 729 50 μl (0.1 M aqueous solution)
[13] = MR 729 100 μl (0.1 M aqueous solution)

Question: Which LD50 [1] does the source give for `CC(S)C(=O)NCC(=O)N1CSCC1C(=O)O` (stereo not shown) [MR 729, 3-[N-(2-mercapto-propionyl-amino-acetyl)]-tetrahydro-thiazolyl-4-carboxylic acid] here?
Answer: 395 mg/kg

Question: And the ACE activity [2, 11]?
Answer: 9 nmol/10 min/20 μl

Question: And the “% Enzymatic activity” value [2, 11]?
Answer: 30%

Question: What about the ACE activity [2, 12] of the same compound?
Answer: 7 nmol/10 min/20 μl

Question: And the “% Enzymatic activity” value [2, 12]?
Answer: 23%

Question: And the ACE activity [2, 13]?
Answer: 3 nmol/10 min/20 μl

Question: And the “% Enzymatic activity” value [2, 13]?
Answer: 10%

Question: And the “ID50 (ACE inhibition)” value ([2]; in vitro, normal human serum, 0.1 M aqueous solution of MR 729)?
Answer: 60

Question: And the “Inhibition of liver lipid infiltration induced by CCl4” value [3]?
Answer: able to inhibit, in a dose-dependent way, the lipid infiltration

Question: What about the “Antagonism of ethionine-induced hepatic lipidic infiltration” value [4] of the same compound?
Answer: effective in antagonizing, with a dose-related intensity, the establishment of this pathology

Question: What about the “Histological examination of biliary ducts and parenchyma” value [5] of the same compound?
Answer: structure of biliary ducts in the treated animals was practically unchanged

Question: And the “Inhibition of hepatic pathology caused by α-naphtyl-isothiocyanate” value [5]?
Answer: inhibits the development of such pathology

Question: What about the “Effect on liver regeneration” value [6] of the same compound?
Answer: acts in a positive way on the regeneration process, without however a clear dose-effect relationship

Question: What about the Sleeping times ([7]; oral 4 days, at highest doses) of the same compound?
Answer: practically within normal limits

Question: What about the “Inhibition of CCl4-induced prolongation of hexobarbital sleeping time” value ([7]; oral route for 4 consecutive days at different doses, then CCl4, hexobarbital after 48 hours) of the same compound?
Answer: inhibits the remarkable prolongation of sleeping time

Question: What about the Decrease of viscosity ([8]; pig gastric mucine, according to the considered dose) of the same compound?
Answer: 17-35%

Question: And the “Mucolytic activity higher than equiponderant doses of N-acetyl-S-cysteine” value ([8]; same experimental conditions, according to the doses)?
Answer: 35-50%

Question: And the “Bronchosecretolytic activity relative to carboxymethylcysteine 500 mg/kg i.p.” value [9]?
Answer: fivefold higher activity

Question: What about the inhibition at 25 µM [10] of the same compound?
Answer: ~63%

— patent publication US4447419A, “Thiazole derivative, and pharmaceutical compositions containing it” (Ausonia Farmaceutici s.r.l., priority 1981, dated 1984)
